Measurements taken from patent publication US20250101019A1 (Insilico Medicine IP Limited, priority 2022, published 2025).

Assays:
[1] = biological target: T1, ENPP1 (Homo sapiens (Human), UniProt P22413); assay: cGAMP-Glo enzymatic assay (2′3′-cGAMP substrate, AMP-Glo readout); assay type: biochemical; conditions: substrate 2′3′-cGAMP; 25° C. for 60 min; 50 mM Tris pH 8.8
Protocol: (§1) Example A: Enzymatic Assay
(§2) • 1. Diluted compounds in DMSO by hand for 11 points, 3 folds dilution. Then transferred 0.02 μL compounds to 384 assay plate by ECHO. • 2. Added 2 μL specified concentration of ENPP1 to 384 assay plate. Centrifuged 1000 RPM for 1 min. • 3. Added 2 μL specified concentration of ATP to the assay plate. Centrifuged 1000 RPM for 1 min. • 4. Incubated at 25° C. for 60 min. • 5. Added 4 μL AMP-Glo Reagent to the assay plates. • 6. Centrifuged 1000 RPM for 1 min, incubate at 25° C. for 1 hours. • 7. Added 8 μL Kinase Detection Reagent to the assay plates. • 8. Centrifuged 1000 RPM for 1 min, incubated at 25° C. for 1 hours. The final assay reaction mixture contained a buffer of 50 mM Tris pH 8.8, 250 mM NaCl and 0.1% BSA • 9. Read on Envision for US LUM as RLU. • 10. Analyzed the raw data using the equation (V. Data analysis). cGAMP-Glo Assay: • 1. Diluted compounds in DMSO by hand for 11 points, 3 folds dilution. Then transferred 0.02 μL compounds to 384 assay plate by ECHO. • 2. Added 2 μL specified concentration of ENPP1 to 384 assay plate, centrifuged 1000 RPM for 1 min. • 3. Added 2 μL specified concentration of 2′3′-cGAMP to the assay plate, centrifuged 1000 RPM for 1 min. • 4. Incubated at 25° C. for 60 min. • 5. Added 4 μL AMP-Glo Reagent to the assay plates. • 6. Centrifuged 1000 RPM for 1 min, incubated at 25° C. for 1 hours. • 7. Added 8 μL Kinase Detection Reagent to the assay plates. • 8. Centrifuged 1000 RPM for 1 min, incubate at 25° C. for 1 hours. The final assay reaction mixture contained a buffer of 50 mM Tris pH 8.8, 250 mM NaCl and 0.1% BSA • 9. Read on Envision for US LUM as RLU. • 10. Analyzed the raw data using the equation (V. Data analysis).

[2] = biological target: T1, ENPP1; assay: ATP-Glo enzymatic assay (ATP substrate, AMP-Glo readout); assay type: biochemical; conditions: 25° C. for 60 min, 50 mM Tris pH 8.8
Protocol: as §1, §2

T1 sequence (P22413 whole entry, species assumed): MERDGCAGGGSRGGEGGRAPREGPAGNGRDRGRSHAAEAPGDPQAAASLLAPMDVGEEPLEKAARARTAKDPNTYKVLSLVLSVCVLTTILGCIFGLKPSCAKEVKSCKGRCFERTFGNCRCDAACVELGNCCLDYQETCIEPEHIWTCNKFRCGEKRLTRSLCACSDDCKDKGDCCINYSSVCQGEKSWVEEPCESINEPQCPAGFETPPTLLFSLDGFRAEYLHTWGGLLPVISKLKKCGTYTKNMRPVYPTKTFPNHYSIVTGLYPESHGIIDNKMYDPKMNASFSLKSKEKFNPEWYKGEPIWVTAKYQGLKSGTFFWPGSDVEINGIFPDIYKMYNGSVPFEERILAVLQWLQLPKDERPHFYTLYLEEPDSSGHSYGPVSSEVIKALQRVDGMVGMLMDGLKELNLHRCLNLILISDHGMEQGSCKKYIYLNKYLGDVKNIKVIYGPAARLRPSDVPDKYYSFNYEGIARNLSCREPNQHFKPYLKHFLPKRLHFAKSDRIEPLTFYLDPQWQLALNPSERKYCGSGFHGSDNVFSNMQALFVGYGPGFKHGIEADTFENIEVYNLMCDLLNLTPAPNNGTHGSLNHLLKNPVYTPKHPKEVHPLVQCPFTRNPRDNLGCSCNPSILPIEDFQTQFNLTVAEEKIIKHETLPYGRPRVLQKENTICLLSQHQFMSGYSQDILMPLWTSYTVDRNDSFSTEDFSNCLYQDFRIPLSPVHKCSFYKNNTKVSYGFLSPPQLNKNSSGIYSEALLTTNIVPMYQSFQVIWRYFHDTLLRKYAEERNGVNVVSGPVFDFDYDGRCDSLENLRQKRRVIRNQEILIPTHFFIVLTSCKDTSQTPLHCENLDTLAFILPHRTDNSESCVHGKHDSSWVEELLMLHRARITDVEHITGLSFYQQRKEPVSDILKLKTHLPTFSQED

IC50 [1] [nM] | IC50 [2] [nM] | Structure (SMILES)
< 1 | < 1 | Cc1ncc2nc(C)n(Cc3ccc(S(N)(=O)=O)cc3)c2c1-c1ccccc1 [Example 31, 4-((2,6-dimethyl-7-phenyl-1H-imidazo[4,5-c]pyridin-1-yl)methyl)benzene sulfonamide]
< 1 | < 1 | Cc1ncc(-c2ccccc2)c2c1nc(C)n2Cc1ccc(S(N)(=O)=O)cc1 [Example 32, 4-((2,4-dimethyl-7-phenyl-1H-imidazo[4,5-c]pyridin-1-yl)methyl)benzene sulfonamide]
< 1 | < 1 | Cc1nc2cnc(OC(F)F)c(-c3ccccc3)c2n1Cc1ccc(S(N)(=O)=O)cc1 [Example 33, 4-((6-(difluoromethoxy)-2-methyl-7-phenyl-1H-imidazo[4,5-c]pyridin-1-yl)methyl)benzenesulfonamide]
< 1 | < 1 | Cc1ncc2nc(C(F)(F)F)n(Cc3c(F)cc(S(N)(=O)=O)cc3F)c2c1-c1ccccc1 [Example 34, 3,5-difluoro-4-((6-methyl-7-phenyl-2-(trifluoromethyl)-1H-imidazo[4,5-c]pyridin-1-yl)methyl)benzenesulfonamide]
1 to 10 | 1 to 10 | COc1ncc2nc(C)n(C(C)c3ccc(S(N)(=O)=O)cc3)c2c1-c1ccccc1 (stereo not shown) [Example 35, 4-(1-(6-methoxy-2-methyl-7-phenyl-1H-imidazo[4,5-c]pyridin-1-yl)ethyl) benzenesulfonamide]
< 1 | < 1 | COc1ncc2nc(C)n(Cc3ccc(S(N)(=O)=O)c(F)c3)c2c1-c1ccccc1 [Example 36, 2-fluoro-4-((6-methoxy-2-methyl-7-phenyl-1H-imidazo[4,5-c]pyridin-1-yl)methyl)benzenesulfonamide]
< 1 | < 1 | Cc1ncc2nc(C)n(Cc3ccc(OS(N)(=O)=O)cc3)c2c1-c1ccccc1 [Example 37]
< 1 | < 1 | Cc1ncc2nc(C(F)F)n(Cc3c(F)cc(S(N)(=O)=O)cc3F)c2c1-c1ccccc1 [Example 38, 4-((2-(difluoromethyl)-6-methyl-7-phenyl-1H-imidazo[4,5-c]pyridin-1-yl)methyl)-3,5-difluorobenzenesulfonamide]
< 1 | < 1 | Cc1ncc2nc(C3CC3)n(Cc3c(F)cc(S(N)(=O)=O)cc3F)c2c1-c1ccccc1 [Example 39, 4-((2-cyclopropyl-6-methyl-7-phenyl-1H-imidazo[4,5-c]pyridin-1-yl)methyl)-3,5-difluorobenzenesulfonamide]
< 1 | < 1 | Cc1nc2cncc(-c3ccccc3)c2n1Cc1ccc(S(N)(=O)=O)cc1 [Example 40, 4-((2-methyl-7-phenyl-1H-imidazo[4,5-c]pyridin-1-yl)methyl)benzene sulfonamide]
< 1 | < 1 | [2H]C([2H])([2H])c1nc2cnc(C)c(-c3ccccc3)c2n1Cc1c(F)cc(S(N)(=O)=O)cc1F [Example 42, 3,5-difluoro-4-((6-methyl-2-(methyl-d3)-7-phenyl-1H-imidazo[4,5-c]pyridin-1-yl)methyl)benzenesulfonamide]
< 1 | < 1 | Cc1nc2cncc(-c3ccccc3)c2n1Cc1c(F)cc(S(N)(=O)=O)cc1F [Example 43, 3,5-difluoro-4-((2-methyl-7-phenyl-1H-imidazo[4,5-c]pyridin-1-yl)methyl)benzenesulfonamide]
< 1 | < 1 | Cc1ncc2nc(C)n(Cc3c(F)cc(S(N)(=O)=O)cc3F)c2c1-c1ccccc1F [Example 44, 3,5-difluoro-4-((7-(2-fluorophenyl)-2,6-dimethyl-1H-imidazo[4,5-c]pyridin-1-yl)methyl)benzenesulfonamide]
< 1 | < 1 | Cc1ncc2nc(C)n(Cc3c(F)cc(S(N)(=O)=O)cc3F)c2c1-c1cccc(F)c1 [Example 45, 3,5-difluoro-4-((7-(3-fluorophenyl)-2,6-dimethyl-1H-imidazo[4,5-c]pyridin-1-yl)methyl)benzenesulfonamide]
